Tests used:
[1] = test system: Puccinia recondita var. tritici; assay: Protectant control of leaf rust of wheat; format: in vivo
Method: (§1) Individual pots of approximately 20 to 25 wheat (Triticum vulgare, cv. Cheyenne) plants each, grown under greenhouse conditions, approximately 7 to 8 days old and 10.2 to 12.7 cm. tall are used as test plants, a minimum of three such pots per unit of test.
(§2) The required amount of test compound is dissolved in 10 ml. of a stock solution consisting of 1995 ml. acetone, 4 ml. sorbitan trioleate and 1 ml. polyoxyethylene (20) sorbitan monooleate and diluted to a volume of 100 ml. by addition of 90 ml. deionized water.
(§3) Test plants, three pots per unit of test, are mounted on a compound turntable and sprayed to incipient run-off with the test solution applied at 2.81 kg/cm^2 pressure for 60 seconds using a solid conte T-Jet 8801E spray nozzle. By this spray procedure the delivery rate is equivalent to approximately 467.7 l/ha.
(§4) Treated plants are allowed to air dry for 5 to 6 hours and then inoculated by uniformly dusting with urediospores of leaf rust of wheat (Puccinia recondita var. tritici) at a rate of approximately 2 × 10^5 urediospores per replicate, using urediospores directly from diseased plants. Inoculated plants are immediately placed in an incubation chamber maintained at 21° C. and 95% + RH. After 24 hours plants are removed to the greenhouse and maintained under greenhouse conditions of 21° to 29.4° C. and 50 to 75% RH for 5 to 8 days until signs of orange pustules visible to the naked eye appear on the inoculated but otherwise untreated controls.
Effectiveness of the compound, as applied, is expressed as Percent Control calculated as: [formula]
Average number of pustules on plants of any given test unit is determined by randomly dividing all plants in each of the three replicates (one pot per replicate) into quadrants, counting the actual number of pustules on all plants within a quadrant in each of the three replicates, multiplying by four and averaging the total number of pustules thus obtained as the average number of pustules per replicate.

[2] = Thermal decomposition point (Differential Thermal Analyzer); format: physicochemical; details: 20° C./min, onset method; listed as Parent Compound
Method: By the procedure of Examples 2 and 5 the following novel salts of 2,3,5,6-tetrachloro-N-nitroaniline are prepared as listed in Table II below. The melting points (uncorrected) of said salts are determined on a Thomas Hoover Capillary Melting Point Apparatus; while the thermal decomposition points of said salts are determined on a Dupont 900 Differential Thermal Analyzer. […] Decompositions are recorded by an exothermic response and the temperatures given in Table II below are assessed by the "onset method".

wheat = assay: Plant injury to wheat in leaf rust test; format: in vivo, Triticum vulgare, cv. Cheyenne
Method: as §1, §2, §3, §4

[3] = test system: Pyricularia oryzae Carvara; details: in vivo
[4] = test system: Venturia inaequalis (Cke.) Wint.; assay: whole plant or invertebrate; format: in vivo; details: in vivo
[5] = test system: Podosphaera leucotricha (E&E) Salm.; assay: whole plant or invertebrate; format: in vivo; details: in vivo
groundsel and chickweed = details: in vivo; cited from earlier work
crops = details: in vivo; cited from earlier work
rice = details: 1000 ppm

O=[N+]([O-])Nc1c(Cl)c(Cl)cc(Cl)c1Cl [2,3,5,6-Tetrachloro-N-nitroaniline, 2,3,5,6-tetrachloro-N-nitroaniline]
% Control (Ave) ([1]; 50 ppm): 35% | No. of Infection Loci/Replicate ([1]; 50 ppm, Rep. 1): 186 | No. of Infection Loci/Replicate ([1]; 50 ppm, Rep. 2): 173 | No. of Infection Loci/Replicate ([1]; 50 ppm, Rep. 3): 199 | % Control (Ave) ([1]; 100 ppm): 58% | No. of Infection Loci/Replicate ([1]; 100 ppm, Rep. 1): 124 | No. of Infection Loci/Replicate ([1]; 100 ppm, Rep. 2): 119 | No. of Infection Loci/Replicate ([1]; 100 ppm, Rep. 3): 116 | % Control (Ave) ([1]; 200 ppm): 69% | No. of Infection Loci/Replicate ([1]; 200 ppm, Rep. 1): 81 | No. of Infection Loci/Replicate ([1]; 200 ppm, Rep. 2): 96 | No. of Infection Loci/Replicate ([1]; 200 ppm, Rep. 3): 86 | Thermal Decomposition Point [2]: 150 °C | Plant Injury (Ave) (wheat; 50 ppm): 0 | Plant Injury (Ave) (wheat; 100 ppm): 0 | Plant Injury (Ave) (wheat; 200 ppm): 0

Cc1cccc(N[N+](=O)[O-])c1C [2,3-dimethylphenylnitramine]
activity against the rice blast pathogen [3]: considerable activity

O=[N+]([O-])Nc1c(Br)cc(C(F)(F)F)cc1Br [2,6-dibromo-4-trifluoromethylphenylnitramine]
activity against apple scab [4]: active | activity against apple powdery mildew [5]: active

O=C(O)C1(O)c2ccccc2-c2ccc(Cl)cc21 (stereo not shown) [2-chloro-9-fluorenol-9-carboxylic acid]
weed control (groundsel and chickweed): weed control is achieved | selectivity (crops): very little selectivity | susceptibility of most crops examined (crops): susceptible

O=[N+]([O-])Nc1ccc(C(F)(F)F)cc1 [4-trifluoromethylphenylnitramine]
activity against the rice blast pathogen [3]: considerable activity

CC(=O)N(c1c(Cl)c(Cl)cc(Cl)c1Cl)[N+](=O)[O-] [N-acetyl derivative of 2,3,5,6-tetrachlorophenylnitramine]
activity against the rice blast pathogen [3]: considerable activity | activity against apple powdery mildew [5]: active

Cc1cccc(N[N+](=O)[O-])c1C [drawing 55]
Rice Blast Percent Disease Control [3]: 81%

CC(=O)N(c1c(Cl)c(Cl)cc(Cl)c1Cl)[N+](=O)[O-] [drawing 57]
Rice Blast Percent Disease Control [3]: 100%

O=[N+]([O-])Nc1c(Cl)c(Cl)cc(Cl)c1Cl [drawing 58]
Rice Blast Percent Disease Control [3]: 83% | phytotoxicity (rice): M/Sv

O=[N+]([O-])Nc1c(Cl)c(Cl)cc(Cl)c1Cl [drawing 59]
Rice Blast Percent Disease Control [3]: 83% | phytotoxicity (rice): M/Sv

O=[N+]([O-])Nc1c(Cl)c(Cl)cc(Cl)c1Cl [drawing 60]
Rice Blast Percent Disease Control [3]: 83%

O=[N+]([O-])Nc1c(Cl)c(Cl)cc(Cl)c1Cl [drawing 61]
Rice Blast Percent Disease Control [3]: 83%

O=[N+]([O-])Nc1c(Cl)c(Cl)cc(Cl)c1Cl [drawing 62]
Rice Blast Percent Disease Control [3]: 69%
